Measured values from US9771335B2 (THE JOHNS HOPKINS UNIVERSITY, priority 2015, dated 2017).
“Also recorded” adds a separate entry of the source.

Experiments:
hNav1.1 = target: T1, hNav1.1 (Homo sapiens, UniProt P35498); assay: Two-electrode voltage-clamp recording from Xenopus oocytes expressing hNav1.1 with β1; format: cell-based; details: for effect on hNav1.1 opening / gating (in words): G/Gmax vs DMSO control; for hNav1.1 Inactivation (V1/2), steady-state inactivation / hNav1.1 Activation (V1/2): 100 μM drug, Xenopus oocytes, DMSO 1% or less; for hNav1.1 Activation (V1/2): at least one hour incubation, ** = p<0.005 vs DMSO; for effect on hNav1.1 persistent current (in words): end of a 50 ms test pulse; for depolarizing shift in hNav1.1 channel activation voltage: vs DMSO control
T1 construct: host or cells: Xenopus oocytes (cRNA injection)

hNav1.6 = target: T2, hNav1.6 (Homo sapiens, UniProt Q9UQD0); assay: Two-electrode voltage-clamp recording from Xenopus oocytes expressing hNav1.6 with β1; format: cell-based; details: for hNav1.6 Activation (V1/2) / hNav1.6 Inactivation (V1/2), steady-state inactivation: 100 μM drug, Xenopus oocytes, DMSO 1% or less
T2 construct: host or cells: Xenopus oocytes (cRNA injection)

hNav1.2 = target: T3, hNav1.2 (Homo sapiens, UniProt Q99250); assay: Two-electrode voltage-clamp recording from Xenopus oocytes expressing hNav1.2 with β1; format: cell-based; details: for effect on hNav1.2 opening / tested gating parameters (in words): 100 μM, vs DMSO control; for hNav1.2 Activation (V1/2) / hNav1.2 Inactivation (V1/2), steady-state inactivation: 100 μM drug, Xenopus oocytes, DMSO 1% or less
T3 construct: host or cells: Xenopus oocytes (cRNA injection)

hNav1.3 = target: T4, hNav1.3 (Homo sapiens, UniProt Q9NY46); assay: Two-electrode voltage-clamp recording from Xenopus oocytes expressing hNav1.3 with β1; format: cell-based; details: for effect on hNav1.3 opening / tested gating parameters (in words): 100 μM, vs DMSO control; for hNav1.3 Activation (V1/2) / hNav1.3 Inactivation (V1/2), steady-state inactivation: 100 μM drug, Xenopus oocytes, DMSO 1% or less
T4 construct: host or cells: Xenopus oocytes (cRNA injection)

[1] = tested on: flurothyl-induced generalized seizures in male Cr1:CF1 mice; assay: Flurothyl seizure induction; format: in vivo; details: 75 mg/kg ip, vs vehicle, p=0.6
Method: (§1) Animal husbandry and drug administration. Male Cr1:CF1 mice (10-12 weeks old, Charles River) were housed under a 12 hour light-dark cycle with free access to food and water and all experiments were carried out between 10 am and 4 pm. 1-[phenyl-methyl]-1H-1,2,3-triazole-4-carboxamide-5-methyl (Compound B) (Sigma Aldrich) was suspended in a 40% solution of cyclodextrin (Sigma Aldrich) in sterile saline (0.9%) and 15 minutes prior to each seizure induction paradigm, 75 mg/kg of compound B was administered via intraperitoneal injection (ip) injection. Vehicle treated animals were similarly administrated 40% cyclodextrin and served as the controls for each experiment. The Emory University Institutional Animal Care and Use Committee approved all experimental protocols involving mice.
Flurothyl Seizure induction. Latencies to flurothyl-induced seizures were determined as previously described (Neurobiol Dis 49C, 211-220 (2012)). Briefly, flurothyl (2,2,2-trifluroethylether; Sigma Aldrich) was dispensed at a rate of 20 μl/minute into a Plexiglas chamber and latencies to three behavioral phenotypes were compared between vehicle-treated and compound B-treated (75 mg/kg) mice (n=12 per group): 1) the first myoclonic jerk, 2) a generalized tonic-clonic seizure, and 3) a generalized tonic-clonic seizure with tonic extension. […]

α1/β2/γ2 GABAA receptor = target: T5, α1/β2/γ2 GABAA receptor (Homo sapiens, UniProt P14867+P18507+P47870); assay: GABAA receptor activation in oocytes held at −70 mV; format: cell-based; details: 100 μM; 5 μM muscimol as activator control
T5 construct: expressed in transfected cells; host or cells: oocytes (heterologous expression inferred)
Description: Oocytes were kept at −70 mV throughout the experiment.

[2] = tested on: picrotoxin-induced generalized seizures in male Cr1:CF1 mice; assay: Picrotoxin seizure induction; format: in vivo
Method: as §1
Seizure induction paradigms and analyses. Picrotoxin seizure induction—15 minutes prior to i.p. injection of picrotoxin (10 mg/kg, Sigma Aldrich), mice were administered vehicle or compound B (n=12 per group). Latencies to the first myoclonic jerk, forelimb clonus, and generalized tonic-clonic seizure were compared between compound B and vehicle-treated mice. The myoclonic jerk is characterized by a sudden jerk of the upper body whereas forelimb clonus involves rapid movement of the forelimbs for at least 5s. Finally, the generalized tonic-clonic seizure involves the loss of postural control with rapid movement of the limbs for at least 5s.
Statistical analysis. A Student's t-test was used to identify statistically significant differences in latencies between vehicle- and compound B-treated groups for each seizure phenotype following administration of flurothyl and picrotoxin. […] All data are presented as the mean±s.e.m.; p values <0.05 were considered significant.

[3] = tested on: 6 Hz (17 mA) induced partial seizures in male Cr1:CF1 mice; assay: 6 Hz psychomotor seizure induction; format: in vivo; details: 75 mg/kg ip, p<0.0001
Method: as §1
6 Hz psychomotor seizure induction. Topical anesthetic (0.5% tetracaine hydrochloride ophthalmic solution) was applied to the cornea 30 minutes before testing. Fifteen minutes prior to seizure induction, mice were administrated vehicle or compound B (n=12 per group). Each mouse was manually restrained and corneal stimulation (0.2 ms pulse, 6 Hz, 3s) was performed at a current intensity of 17 mA (ECT Unit 57800; Ugo Basile, Comerio Italy). […]

Solubility of rufinamide = format: physicochemical
[4] = 75 mg/kg ip 15 minutes prior to picrotoxin 10 mg/kg, vs vehicle

T5 sequence (P14867 28-456): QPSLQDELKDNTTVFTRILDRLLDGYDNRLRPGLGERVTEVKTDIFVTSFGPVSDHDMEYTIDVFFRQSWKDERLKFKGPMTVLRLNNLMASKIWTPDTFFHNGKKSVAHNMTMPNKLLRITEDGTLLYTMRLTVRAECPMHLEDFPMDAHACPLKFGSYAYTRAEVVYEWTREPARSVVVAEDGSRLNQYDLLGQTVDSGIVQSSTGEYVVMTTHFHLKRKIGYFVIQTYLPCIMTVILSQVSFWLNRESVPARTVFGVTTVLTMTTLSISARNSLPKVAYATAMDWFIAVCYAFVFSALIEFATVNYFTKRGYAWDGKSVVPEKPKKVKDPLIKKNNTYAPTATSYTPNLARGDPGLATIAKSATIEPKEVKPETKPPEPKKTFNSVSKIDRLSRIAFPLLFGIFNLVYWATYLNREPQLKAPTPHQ
T5 sequence (P47870 25-512 limits assumed): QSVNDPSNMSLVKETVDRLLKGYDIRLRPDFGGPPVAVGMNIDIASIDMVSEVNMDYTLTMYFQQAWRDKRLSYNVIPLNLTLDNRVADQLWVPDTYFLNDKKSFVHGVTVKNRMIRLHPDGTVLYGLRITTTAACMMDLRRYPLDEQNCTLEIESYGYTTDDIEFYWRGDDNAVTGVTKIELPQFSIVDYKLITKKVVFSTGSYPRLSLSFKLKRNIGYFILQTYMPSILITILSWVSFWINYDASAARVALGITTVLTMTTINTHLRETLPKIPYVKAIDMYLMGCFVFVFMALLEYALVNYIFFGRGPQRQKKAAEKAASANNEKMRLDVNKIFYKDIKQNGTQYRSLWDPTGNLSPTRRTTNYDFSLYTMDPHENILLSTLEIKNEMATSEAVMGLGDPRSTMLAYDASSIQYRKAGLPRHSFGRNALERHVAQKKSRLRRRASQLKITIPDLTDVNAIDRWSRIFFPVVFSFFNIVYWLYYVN
T5 sequence (P18507 40-475): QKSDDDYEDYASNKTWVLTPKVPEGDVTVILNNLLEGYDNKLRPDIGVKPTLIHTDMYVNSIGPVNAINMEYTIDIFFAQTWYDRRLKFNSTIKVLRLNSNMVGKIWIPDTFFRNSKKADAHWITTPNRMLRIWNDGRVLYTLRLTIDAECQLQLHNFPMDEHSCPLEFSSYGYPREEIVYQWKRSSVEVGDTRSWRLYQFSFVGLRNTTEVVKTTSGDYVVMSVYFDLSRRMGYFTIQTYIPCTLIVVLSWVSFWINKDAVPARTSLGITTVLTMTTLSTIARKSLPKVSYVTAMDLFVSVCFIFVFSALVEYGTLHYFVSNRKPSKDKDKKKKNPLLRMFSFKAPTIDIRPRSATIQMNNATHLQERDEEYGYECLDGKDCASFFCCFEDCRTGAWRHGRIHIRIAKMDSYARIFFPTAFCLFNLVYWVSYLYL

Compound	effect on hNav1.1 opening / gating (in words) (hNav1.1; 100 μM)	hNav1.1 Inactivation (V1/2), steady-state inactivation (hNav1.1) [mV]	hNav1.1 Activation (V1/2) (hNav1.1) [mV]	effect on hNav1.1 persistent current (in words) (hNav1.1; 100 μM)	effect on hNav1.2 opening / tested gating parameters (in words) (hNav1.2)	effect on hNav1.3 opening / tested gating parameters (in words) (hNav1.3)	effect on hNav1.6 opening / tested gating parameters (in words) (hNav1.6; 100 μM, vs DMSO control)	other results
COC(=O)c1nnn(Cc2c(F)cccc2F)c1C [Compound L, 1-[(2,6-difluorophenyl)methyl]-1H-1,2,3-triazole-carboxymethyl-5-methyl]	much smaller compared to compound B	–	–	–	–	–	–	shift of midpoint of hNav1.6 channel availability (steady-state inactivation) (hNav1.6; 100 μM, vs DMSO control): ~−20 mV
OCc1cn(Cc2cccc(F)c2)nn1 [Compound C, 1-[(3-fluorophenyl)methyl]-1H-1,2,3-Triazole-4-hydroxymethyl]	does not influence hNav1.1 gating; also recorded: no longer affects hNav1.1 opening	−49.2 ± 0.6	−38.4 ± 1.3	–	–	–	–	–
NC(=O)c1nnn(Cc2cccc(F)c2)c1N [Compound A, 1-[(3-fluorophenyl)methyl]-1H-1,2,3-Triazole-4-carboxamide-5-amine]	clearly inhibit hNav1.1 opening	−50.5 ± 1.2	−30.8 ± 1.0	neither of these compounds influences	–	–	–	–
1-[(2,6-difluorophenyl)methyl]-1H-1,2,3-triazole-carboxymethyl-5-methyl [Compound L]	only slightly inhibits hNav1.1 opening	–	–	–	not significant	not significant	–	effect on hNav1.6 steady-state inactivation (in words) (hNav1.6; 100 μM): dramatically affect hNav1.6 steady-state inactivation
CCc1c(C(N)=O)nnn1Cc1ccccc1 [Compound F, 1-(phenylmethyl)-1H-1,2,3-triazole-4-carboxamide-5-ethyl]	inhibits hNav1.1 opening	–	–	does not influence	not significant	not significant	not significant	effect on hNav1.1 steady-state inactivation (in words) (hNav1.1; 100 μM): does not influence; depolarizing shift in hNav1.1 channel activation voltage (hNav1.1; 100 μM): ~+12 mV
NC(=O)c1nnn(Cc2ccc(F)cc2)c1N [Compound D, 1-[(4-fluorophenyl)methyl]-1H-1,2,3-Triazole-4-carboxamide-5-amine]	not significant	−49.8 ± 1.6	−32.5 ± 2.3	–	–	–	–	–
Cc1c(C(N)=O)nnn1Cc1ccccc1 [Compound B, 1-[phenyl-methyl]-1H-1,2,3-Triazole-4-carboxamide-5-methyl]	more efficaciously when compared to rufinamide; also recorded: clearly inhibit hNav1.1 opening	−49.4 ± 0.3	−27.4 ± 1.0	do not affect persistent current	unaltered	unaltered	unaltered	hNav1.2 Activation (V1/2) (hNav1.2): −23.6 ± 1.1 mV; hNav1.2 Inactivation (V1/2), steady-state inactivation (hNav1.2): −53.6 ± 1.2 mV; average latency to the MJ, flurothyl [1]: comparable; effect on entry or voltage-dependence of hNav1.1 slow inactivation (in words) (hNav1.1): do not influence; depolarizing shift in hNav1.1 channel activation voltage (hNav1.1; 100 μM): ~+11 mV; Voltage-dependence of SI (V), V1/2 of hNav1.1 slow inactivation (hNav1.1; oocytes expressing hNav1.1, Boltzmann fit): −43.2 ± 1.3 mV; Entry into SI (T), time constant of entry into hNav1.1 slow inactivation (hNav1.1; oocytes expressing hNav1.1, single exponential fit): 5.5 ± 0.4 s; hNav1.3 Activation (V1/2) (hNav1.3): −25.8 ± 1.4 mV; hNav1.3 Inactivation (V1/2), steady-state inactivation (hNav1.3): −50.0 ± 0.8 mV; activation of the α1/β2/γ2 GABAA receptor (in words) (α1/β2/γ2 GABAA receptor): do not activate; also recorded: do not evoke inward GABAA-mediated currents; hNav1.6 Activation (V1/2) (hNav1.6): −23.8 ± 1.9 mV; hNav1.6 Inactivation (V1/2), steady-state inactivation (hNav1.6): −62.6 ± 0.7 mV; frequency of the behavioral seizures vs vehicle, picrotoxin ([2]; 75 mg/kg ip): no difference; average latency to forelimb clonus (FC), picrotoxin [2, 4]: no statistically significant differences; average latency to the first myoclonic jerk (MJ), picrotoxin [2, 4]: no statistically significant differences; severity of seizures vs vehicle (modified Racine scale), 6 Hz [3]: dramatically less severe; also recorded: typically less severe
NC(=O)c1cn(Cc2c(F)cccc2F)nn1 [Rufinamide, 1-[(2,6-difluorophenyl)methyl]-1H-1,2,3-Triazole-4-carboxamide, reference compound]	dramatic depolarizing shift; also recorded: inhibits hNav1.1 opening	−47.8 ± 1.6	−30.6 ± 0.9	do not affect persistent current	not inhibited	not inhibited	not inhibited; also recorded: not significant	hNav1.2 Activation (V1/2) (hNav1.2): −29.5 ± 1.2 mV; hNav1.2 Inactivation (V1/2), steady-state inactivation (hNav1.2): −57.7 ± 0.5 mV; effect on entry or voltage-dependence of hNav1.1 slow inactivation (in words) (hNav1.1): do not influence; hNav1.3 Activation (V1/2) (hNav1.3): −24.5 ± 2.4 mV; hNav1.3 Inactivation (V1/2), steady-state inactivation (hNav1.3): −52.6 ± 1.6 mV; activation of the α1/β2/γ2 GABAA receptor (in words) (α1/β2/γ2 GABAA receptor): do not activate; also recorded: do not evoke inward GABAA-mediated currents; hNav1.6 Activation (V1/2) (hNav1.6): −28.1 ± 0.8 mV; hNav1.6 Inactivation (V1/2), steady-state inactivation (hNav1.6): −60.0 ± 0.7 mV; solubility (Solubility of rufinamide; DMSO, organic solvent or mixture): ≤ 9000 µg/mL; solubility in water (Solubility of rufinamide; water): slightly soluble
